Results taken from patent US9012365B2, “Compatibility agents for herbicidal formulations comprising 2,4-(Dichlorophenoxy) acetic acid salts” (priority 2006, dated 2015).
Several values for one entry are separate records, joined by “and”; a condition that tells them apart may be missing. Equal values may be shown once.

Test: Appearance of 10 g solution of (2.5 wt % ai 2,4-D DMA + tested chemical) after adding 40% AMS
Assay type: physicochemical
Conditions: 2.5 wt % ai 2,4-D DMA; for Addition Weight of 40% AMS: System was cloud after adding / Addition Weight of 40% AMS: System was clear after adding: 10 g solution
Procedure: In this example, the appearance of a 10 g solution of (2.5 wt % ai 2,4-D DMA+tested chemical) was evaluated after adding 40% AMS

[1] = 0.13 wt % a.i. of tested chemical, 0 gram 40% AMS
[2] = 0.13 wt % a.i. of tested chemical
[3] = 1.25 wt % a.i. of tested chemical
[4] = 0.04 wt % a.i. of tested chemical

| 0 gram Appearance [1] | Addition Weight of 40% AMS: System was cloud after adding [2] | Addition Weight of 40% AMS: System was clear after adding [2] | Molecule | further results |
| --- | --- | --- | --- | --- |
| Clear | 0.633 grams |  | 2-propylheptanol-5 EO |  |
| Clear | 0.526 grams | 0.43 grams | 2-propylheptanol-8EO |  |
| Clear | 1.212 grams | 1 grams | C8-10 glycosides [AG 6210] |  |
| Clear | 0.72 grams | 0.519 grams | C10-12 alcohol ethoxylate (9EO) |  |
| Clear | 0.521 grams | 0.279 grams | Castor oil ethoxylate-20EO |  |
| Clear | 0.096 grams |  | Cocoamine-2EO oxide |  |
| Clear | 1.633 grams | 1.478 grams | Cocoamine-5EO |  |

The remaining lines, values behind:

| Molecule | 0 gram Appearance [1] | Addition Weight of 40% AMS: System was cloud after adding [2] | Addition Weight of 40% AMS: System was clear after adding [2] | further results |
| --- | --- | --- | --- | --- |
| 2-ethylhexyl glycoside | Clear | 0.226 grams |  |  |
| CCCCOCCOC(C)=O [Butyl cellosolve Acetate (C4—O—C—C—OOCC), Butyl cellosolve Acetate] | Clear | 0.324 grams | 0.162 grams |  |
| CCCCCCCCCCCC[N+](C)(C)CC(=O)[O-] [Lauryldimethyl betaine] |  |  |  | 0 gram Appearance [3]: Clear; Addition Weight of 40% AMS: System was clear after adding [3]: 0.693 grams; Addition Weight of 40% AMS: System was cloud after adding [3]: 0.913 grams |
| CCCCCCCCCCCCOS(=O)(=O)[O-].[Na+] [Sodium lauryl sulfate] |  |  |  | 0 gram Appearance [4]: Clear; Addition Weight of 40% AMS: System was cloud after adding [4]: 0.101 grams |
| Alkyl ether citrate | Clear | 0.509 grams |  |  |
| C6-10 isopropylamine alcohol ether sulfate | Clear | 0.712 grams | 0.528 grams |  |
| C8-10 + 4 EO phosphate ester (acid) | Clear | 0.488 grams |  |  |
| C8-10 glycosides [Agnique PG 8166] | Clear | 0.217 grams |  |  |
| C9-C11 glycoside | Clear | 0.272 grams |  |  |
| C10-12 alcohol ethoxylate (5EO) | Clear | 1.226 grams | 1.035 grams |  |
| C10-12 alcohol ethoxylate (7EO) | Clear | 1.033 grams and 1.026 grams | 0.829 grams and 0.903 grams |  |
| C10-12 alcohol ethoxylate (12EO) | Clear | 0.669 grams | 0.619 grams |  |
| C11 alcohol ethoxylate (5EO) | Clear | 0.918 grams | 0.819 grams |  |
| Castor oil ethoxylate | very cloudy | 0 grams | very cloudy |  |
| Cocamide DEA | Clear | 0.987 grams | 0.701 grams |  |
| Coco duoamine-3EO | Clear | 4.058 grams | 3.521 grams |  |
